The OligoGym collection
After the bases stand the sugars from the 5' end (letter, count) and the backbone: PS all phosphorothioate, else s phosphorothioate and o phosphodiester by linkage. Methylation of C is not given here. e = 2'-O-(2-methoxyethyl) (MOE); k = constrained ethyl (cEt); d = 2'-deoxy (DNA); m = 2'-O-methyl

Molecular target: HSD17B13
Settings: ASO, HepaRG

| Sequence | target mRNA inhibition (1 µM) | other results |
| --- | --- | --- |
| GTAATCACAAGTAAGG (sugars kkdddddddddkekek, PS) | 72% | target mRNA inhibition (0.02 µM): 0%; target mRNA inhibition (0.078 µM): 2%; target mRNA inhibition (0.313 µM): 35%; target mRNA inhibition (1.25 µM): 49%; target mRNA inhibition (5 µM): 70% |
| GTAATGGTAAACTGTA (sugars k3 d10 k3, PS) | 70% |  |
| GTAATTAATCTTGTTC (sugars k3 d10 k3, PS) | 52% |  |
| GTAATTACTTCTGATG (sugars k3 d10 k3, PS) | 41% |  |
| GTAATTCTAAACTAGT (sugars k3 d10 k3, PS) | 39% |  |
| GTAATTGCATCTGCTC (sugars k3 d10 k3, PS) | 51% |  |
| GTAATTTTCAGATCCC (sugars k3 d10 k3, PS) | 82% | target mRNA inhibition (0.02 µM): 24%; target mRNA inhibition (0.078 µM): 43%; target mRNA inhibition (0.313 µM): 69%; target mRNA inhibition (1.25 µM): 88%; target mRNA inhibition (5 µM): 88% |
| GTAAUCACAAGTAAGG (sugars k3 d1 m1 d8 k3, PS) | 20% |  |
| GTACACGAAGCCTGAA (sugars k3 d10 k3, PS) | 42% |  |
| GTAGATGGTAAGTCAA (sugars k3 d10 k3, PS) | 86% | target mRNA inhibition (0.02 µM): 20%; target mRNA inhibition (0.078 µM): 35%; target mRNA inhibition (0.313 µM): 55%; target mRNA inhibition (1.25 µM): 84%; target mRNA inhibition (5 µM): 88% |
| GTAGTCTGCCTGCCTA (sugars k3 d10 k3, PS) | 68% |  |
| GTATAGTTATCTTCTC (sugars kkdddddddddkekek, PS) | 49% |  |
| GTATCTTAAGAGAAGG (sugars k3 d10 k3, PS) | 30% |  |
| GTATTGAGATGACAGT (sugars k3 d10 k3, PS) | 68% | target mRNA inhibition (0.02 µM): 0%; target mRNA inhibition (0.078 µM): 0%; target mRNA inhibition (0.313 µM): 3%; target mRNA inhibition (1.25 µM): 47%; target mRNA inhibition (5 µM): 73% |
| GTATTTGAGATTCACC (sugars k3 d10 k3, PS) | 41% |  |
| GTATTTGGGTGTTCTG (sugars k3 d10 k3, PS) | 36% |  |
| GTCACCTTTCATAATG (sugars k3 d1 m1 d8 k3, PS) | 40% |  |
| GTCAGACCTCTGTGAA (sugars k3 d10 k3, PS) | 34% |  |
| GTCATAAAGGTGGGAT (sugars k3 d10 k3, PS) | 28% |  |
| GTCCACCTTTAAATGG (sugars k3 d10 k3, PS) | 33% |  |
| GTCCATGCAAAAGCAT (sugars k3 d10 k3, PS) | 62% |  |
| GTCGGTCACCTTTCAT (sugars kkdddddddddkekek, PS) | 57% |  |

| Sequence | target mRNA inhibition (1 µM) | other results |
| --- | --- | --- |
| GTCTAAACATCTCTGG (sugars k3 d1 m1 d8 k3, PS) | 47% |  |
| GTCTAAATTATTGCCT (sugars k3 d10 k3, PS) | 45% |  |
| GTCTACCTCTAAGTTA (sugars k3 d10 k3, PS) | 3% |  |
| GTCTCCAATACAGGCC (sugars k3 d10 k3, PS) | 47% |  |
| GTCTTAAACCTTCCCT (sugars k3 d10 k3, PS) | 63% |  |
| GTCTTAAACCTTCCCT (sugars kkdddddddddkekek, PS) | 28% |  |
| GTCTUGATGTAGTGGG (sugars k3 d1 m1 d8 k3, PS) | 63% |  |
| GTGAAAGCCAACAGCG (sugars k3 d10 k3, PS) | 62% |  |
| GTGAACCCAGTATTCA (sugars k3 d10 k3, PS) | 1% |  |
| GTGCATCTTAAGATAC (sugars k3 d10 k3, PS) | 47% |  |
| GTGCCAAACCAATGTT (sugars k3 d1 m1 d8 k3, PS) | 30% |  |
| GTGGCATGGCTACAGA (sugars k3 d10 k3, PS) | 56% |  |
| GTGGCATGGCTACAGA (sugars kkdddddddddkekek, PS) | 59% |  |
| GTGGGAGTCGGATTAT (sugars k3 d10 k3, PS) | 37% |  |
| GTGTAAGCTGAGAGTT (sugars k3 d1 m1 d8 k3, PS) | 55% |  |
| GTGTAAGCTGAGAGTT (sugars k3 d9 k3 e1, PS) | 45% |  |
| GTGTAAGCTGAGAGTT (sugars k3 d10 k3, PS) | 60% |  |
| GTGTAGAATTGTCTGT (sugars k3 d10 k3, PS) | 42% |  |
| GTGTTCTTGTTGATAT (sugars k3 d10 k3, PS) | 81% | target mRNA inhibition (0.02 µM): 13%; target mRNA inhibition (0.078 µM): 25%; target mRNA inhibition (0.313 µM): 59%; target mRNA inhibition (1.25 µM): 80%; target mRNA inhibition (5 µM): 93% |
| GTGTTCTTGTTGATAT (sugars kkdddddddddkekek, PS) | 63% |  |
| GTTAAGCAGATGGCTT (sugars k3 d10 k3, PS) | 41% |  |
| GTTACCAGAGCATTCA (sugars k3 d10 k3, PS) | 73% | target mRNA inhibition (0.02 µM): 19%; target mRNA inhibition (0.078 µM): 36%; target mRNA inhibition (0.313 µM): 63%; target mRNA inhibition (1.25 µM): 74%; target mRNA inhibition (5 µM): 92% |
